Here are results for one molecule from patent publication US20220073557A1, “FLUORINATED BILE ACIDS” (NZP UK LIMITED, priority 2018, published 2022).

Where two headings read alike, the source gives them in different places.

Common to all, as to type: cell-based, human
Experiment [1] concerns dopaminergic neurons derived from sPD patients (iNeurons). Description: Dopamine ELISA in iNeurons. The following applies: untreated sPD 0. The method, then:
(§1) Briefly, iNPCs are plated in a 6-well plate and cultured for 2 days in DMEM/F-12 medium with Glutamax™ supplemented with 1% NEAA, 2% B27 (Gibco) and 2.5 μM of DAPT. On day 3, DAPT is removed and the medium is supplemented with 1 μM smoothened agonist (SAG) and FGF8 (75 ng/ml) for additional 10 days. Neurons are replated at this stage. Subsequently SAG and FGF8 are withdrawn and replaced with BDNF (30 ng/ml), GDNF (30 ng/ml), TGF-b3 […] and dcAMP (2 mM, Sigma) for 15 days.
Dopamine ELISA is performed using Dopamine research ELISA kit (Labor Diagnostika Nord GmbH&Co. KG) as per manufacturers instructions. Dopamine release is obtained incubating the cells at 37° C. using three different conditions at the same time per line. Medium is removed in all wells then the first well is incubated with HBSS with Ca^2+ and Mg^2+ (Gibco by Life Technologies) for 30 minutes, the second well is incubated in HBSS with Ca^2+ and Mg^2+ for 15 minutes and then 56 mM KCl (Fisher chemical) is added for another 15 minutes and the third well is incubated with HBSS without Ca^2+ and Mg^2+ (Gibco by Life Technologies) but with 2 mM EDTA for 15 min and then 56 mM KCl is added for another 15 minutes. Straight away media is collected in an eppendorf and cells are harvested using Accutase®, centrifuge at 400 g for 4 min and resuspended in 10 μl of PBS. […]

Experiment [2] shares this test system. The experiment can be described thus: Activated caspase 3 immunofluorescence staining in iNeurons. The following applies: untreated sPD 162. The method, then: as §1
Cells are plated into 96 well plates and fixed using 4% paraformaldehyde for 30 minutes. After PBS washes cells are permeabilised using 0.1% Triton™ X-100 for 10 minutes and blocked using 5% goat serum for 1 hour. Cells are incubated with primary antibodies tyrosine hydroxylase (St John's Laboratory); DAT (Abcam); Tuj (Millipore); Tom20 (BD Biosciences); activated caspase 3 (Cell Signaling); alpha synuclein (Cell Signaling); phosphorylated alpha synuclein (Millipore) at 4° C. for 16 hours. Cells are washed using PBS-Tween® and incubated with Alexa Fluor™-conjugated secondary antibodies 488 and 568 (Invitrogen) and Hoescht (Sigma) 1 μM prior to imaging. Imaging was performed using the Opera Phenix™ high content imaging system (Perkin Elmer).

Experiment [3] has the same test system. The experiment can be described thus: Mitochondrial function and neuronal morphology measurements in iNeurons from sPD patients. The following applies: iNeurons from sPD patients; for EC50: Homo sapiens, Neuron. The method, then:
Fibroblasts were cultured in DMEM (Invitrogen) and routinely subcultured every 3-5 days using trypsin to dissociate them.
as §1
Cells are plated in 96 well plates; for live imaging cells are incubated for one hour at 37 degree with 80 nM tetramethlyrhodamine (TMRM), 1 μM LysoTracker® Green (Invitrogen) and Hoechst Stain solution (Sigma) at 1 μM before imaging using Opera Phenix™. Cellular ATP measurements are undertaken using ATPlite kit (Perkin Elmer) as per manufacturer's instructions. Mitochondrial reactive oxygen species generation was assessed using mitochondrial NpFR2 (probe; a kind gift from Dr Liz New, University of Sydney, Australia) at 20 μM and Hoechst stain solution at 1 μM for 30 mins at 37° C., then the dyes are removed and cells images using Opera Phenix™. Images generated from the live imaging experiments were analysed using Harmony® (Perkin Elmer software). We developed protocols in order to segment nucleus, cell boundary and processes, mitochondria, lysosomes, autophagosomes. We only analysed the z projection images collected from the z stacks.

In experiment [4] the test system is sporadic PD patient fibroblast lines. The experiment can be described thus: Seahorse assay (oxygen consumption, extracellular acidification rate) in sPD fibroblasts. The following applies: Homo sapiens, Fibroblast; concentration at which compounds were dosed in the seahorse assay; read-out: EC90 concentration. The method, then: Fibroblasts are plated into Seahorse 24 well plates with 50,000 cells per well. Cells are left to attach for 2 days. Media is changed to Seahorse DMEM media with glucose and sodium pyruvate and left to equilibrate at 37 degrees normal air CO2 for 1 hour. The plate is entered into the Seahorse machine and run on a program of mix (2 minutes), wait (3 minutes) and measure (3 minutes). After three measurements of basal respiration and ECAR; 0.5 μM oligomycin is injected after which another three measurements are taken; then 0.5 μM of FCCP is injected and three measurements taken and finally 1 μM rotenone is injected and three measurements taken. After all measurements are complete, cells are stained with 10 μM Hoescht and imaged using the InCell to count the number of cells per well for normalisation. This classical ritochondrial stress test experimental protocol allows us to calculate the basal mitochondrial respiration, ATP linked respiration (the amount which is coupled to ATP generation), the maximal and spare respiratory capacity, the non-mitochondrial respiration rate and the extracellular acidification rate which is a proxy measure of glycosolysis.

Experiment [5] has as its system sAD and familial AD (PSEN1 mutants) patient fibroblasts. The experiment can be described thus: Total cellular ATP levels in Alzheimer's disease patient fibroblasts. The following applies: 24 hour treatment at 100 nM, 21% restores to control levels.
Procedure: Briefly, fibroblasts were cultured as and plated into white 384 well plates with 5000 cells per well in 50 μl of media volume. The plates are left overnight in an incubator to allow the fibroblasts to adhere to the plate surface. The following morning the Glucose based medium is replaced with 25 μl of Galactose based medium. The compounds are added to the plates using a ECHO 550 liquid handling system. The wells were dosed to provide an 8-point concentration range of 0.06 nM-300 nM of compound. After dosing the wells are topped up with a further 25 μl of Galactose based medium and then left in an incubator for 24 hours. Following this incubation the medium is removed from the plate and the wells are washed twice with sterile PBS. The wells are filled with 25 μl of Sterile PBS followed by 12.5 μl of Lysis solution from the ATPlite™ Luminescence ATP detection assay system (Perkin Elmer), including 16 cell free wells to use as blank controls. The plate is then placed on a rotary shaker for 5 mins at 700 rpm. Following the shaking 12.5 μl of ATP substrate solution (Perkin Elmer) is added to each well and a further 5 min of shaking. The plate is then placed in darkness for 10 minutes prior to reading. Using a PHERAStar® plate reader, luminescence intensity is recorded. Following the ATP assay the plates are immediately assayed for DNA content in a CyQUANT® assay.
Immediately following The ATP assay DNA content is assessed with the CyQUANT® NF Cell Proliferation Assay Kit (ThermoFisher). CyQUANT® buffer is prepared immediately before the assay and is comprised of 1 ul CyQUANT® dye per ml×1 HBSS solution. 12.5 ul of CyQUANT® buffer is added to each well. Plate left in incubator for 1 hour then read on a PHERAStar® Plate reader with excitation at 497 nm and emission at 520 nm.
Data shown in the Table 6 below is the mean increase in ATP levels after 24 hour treatment with compounds at 100 nM concentration.

Consider `C[C@H](CCC(=O)O)[C@H]1CC[C@H]2[C@@H]3[C@@H](O)C[C@@H]4C[C@H](O)CC[C@]4(C)[C@H]3CC[C@]12C` [UDCA, ursodeoxycholic acid, reference compound], for which the “Dopamine level (increase in dopamine release)” value in experiment [1] was “No effect”. Further, the “Activated caspase 3 levels” value in experiment [2] is on record as 143 % of level in iNeurons from Controls. The EC50 turned out to be 5 nM in experiment [3] (read-out: ATP EC50) and 7.3 nM in experiment [3] (read-out: MMP EC50). In experiment [3] (untreated sPD 48), the “Neuronal morphology (elongation; % controls)” value turned out to be 64 % controls. In addition, the “ATP normalisation (% of controls)” value in experiment [3] (untreated sPD 50) is given as 82 % of controls. In addition, in experiment [3] (untreated sPD 52), the “MMP normalisation (% of controls)” value is reported as 73 % of controls. Moreover, in experiment [3] (untreated sPD 115), the “ROS (Normalisation) (% controls)” value came out at 110 % controls. For the same molecule, the EC90 in experiment [4] is 100 nM. In addition, in experiment [5], the “% increase over vehicle treated (mean increase in ATP levels)” value worked out at 12%.

As usually defined, the EC50 is the concentration giving half of the maximal effect.
